molecular target: menin protein (Homo sapiens (Human), UniProt O00255); experiment: biochemical; format: binding; conditions: FP competitive binding; menin protein 4 nM, FAM-MM2 probe 2 nM; read-out: Menin Binding Affinity IC50
Outline: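 Test compounds displaced FAM-MM2 (2 nM) from 4 nM menin after 30 min equilibration at room temperature in PBS buffer containing bovine γ-globulin, 4% DMSO and Triton X-100. Binding was followed by fluorescence polarization. Competition curves were fitted by nonlinear regression to give IC50 and Ki.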

Chain of menin protein (O00255 whole entry): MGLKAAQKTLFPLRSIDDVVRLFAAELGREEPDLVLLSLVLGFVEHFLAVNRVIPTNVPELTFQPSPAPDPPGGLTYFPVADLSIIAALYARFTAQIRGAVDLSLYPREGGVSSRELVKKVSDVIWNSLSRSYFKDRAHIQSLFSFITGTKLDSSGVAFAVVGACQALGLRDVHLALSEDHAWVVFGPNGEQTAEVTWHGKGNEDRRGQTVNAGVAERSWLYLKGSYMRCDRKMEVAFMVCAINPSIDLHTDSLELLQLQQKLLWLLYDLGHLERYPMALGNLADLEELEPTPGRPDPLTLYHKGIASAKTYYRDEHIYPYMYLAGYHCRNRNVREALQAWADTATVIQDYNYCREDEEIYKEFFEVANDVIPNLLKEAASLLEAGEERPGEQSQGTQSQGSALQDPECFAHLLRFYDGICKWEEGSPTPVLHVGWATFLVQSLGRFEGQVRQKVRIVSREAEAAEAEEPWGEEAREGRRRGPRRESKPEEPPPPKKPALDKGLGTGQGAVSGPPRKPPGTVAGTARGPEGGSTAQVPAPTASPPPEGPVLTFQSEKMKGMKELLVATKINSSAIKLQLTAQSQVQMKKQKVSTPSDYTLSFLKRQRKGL

SMILES | IC50 [µM]
CNC(=O)O[C@@H]1CCC[C@H]1C(Cn1cccc1)(c1ccccc1)C1CCN(CC2CN(c3ccc(S(=O)(=O)c4ccccc4)cc3)C2)CC1 (mixture of isomers) [compound 358, rac-(1R,2S)-2-(1-phenyl-1-(1-((1-(4-(phenylsulfonyl)phenyl)azetidin-3-yl)methyl)piperidin-4-yl)-2-(1H-pyrrol-1-yl)ethyl)cyclopentyl methylcarbamate] | 0.221
CC(=O)O[C@@H]1CCC[C@H]1C(C#N)(c1ccccc1)C1CCN(CC2CN(c3ccc(C(=O)O)cc3)C2)CC1 (mixture of isomers) [compound 389, rac-4-(3-((4-(((1S,2R)-2-acetoxycyclopentyl)(cyano) (phenyl)methyl)piperidin-1-yl)methyl)azetidin-1-yl)benzoic acid] | 6.5
N#Cc1ccc(OCCCN2CCC(C3(C4CCc5ccccc54)NCCc4ccccc43)CC2)cc1 (centres unmarked) [compound 244, 4-(3-(4-(1-(2,3-dihydro-1H-inden-1-yl)-1,2,3,4-tetrahydroisoquinolin-1-yl)piperidin-1-yl)propoxy)benzonitrile] | 2.3
N#CC(c1ccccc1)(C1CCN(CC2CN(c3ccc(S(=O)(=O)c4ccncc4)cc3)C2)CC1)[C@@H]1CCC[C@H]1OC(=O)N1CCC1 (mixture of isomers) [compound 222, rac-(1R,2S)-2-(cyano(phenyl)(1-((1-(4-(pyridin-4-ylsulfonyl)phenyl)azetidin-3-yl)methyl)piperidin-4-yl)methyl)cyclopentyl azetidine-1-carboxylate] | 2
CS(=O)(=O)CCC(C#N)(c1ccccc1)C1CCN(CCCOc2ccc(C#N)cc2)CC1 (centres unmarked) [compound 303, 4-(3-(4-(1-cyano-3-(methylsulfonyl)-1-phenylpropyl)piperidin-1-yl)propoxy)benzonitrile] | 75.3
COC[C@H]1CCC[C@@H]1C(C#N)(c1ccccc1)C1CCN(CC2CN(c3ccc(S(=O)(=O)C4CC4)cc3)C2)CC1 (mixture of isomers) [compound 265, rac-2-(1-((1-(4-(cyclopropylsulfonyl)phenyl)azetidin-3-yl)methyl)piperidin-4-yl)-2-((1S,2S)-2-(methoxymethyl)cyclopentyl)-2-phenylacetonitrile] | 4.9
CSC[C@H]1CCC[C@@H]1C(C#N)(c1ccccc1)C1CCN(CC2CN(c3ccc(S(=O)(=O)c4ccncc4)cc3)C2)CC1 (mixture of isomers) [compound 259, rac-2-((1S,2S)-2-((methylthio)methyl)cyclopentyl)-2-phenyl-2-(1-((1-(4-(pyridin-4-ylsulfonyl)phenyl)azetidin-3-yl)methyl)piperidin-4-yl)acetonitrile] | 10.3
CC(=O)N1CCC[C@H]1C(C#N)(c1ccccc1)C1CCN(CCCOc2ccc(C#N)cc2)CC1 (stereo partly drawn) [compound 330, 4-(3-(4-(((S)-1-acetylpyrrolidin-2-yl)(cyano)(phenyl)methyl)piperidin-1-yl)propoxy)benzonitrile] | 111
CN(C)C(=O)O[C@H]1CCC[C@@H]1C(C#N)(c1ccccc1)C1CCN(CC2CN(c3ccc(S(=O)(=O)c4ccncc4)cc3)C2)CC1 (mixture of isomers) [compound 220, rac-(1S,2R)-2-(cyano(phenyl)(1-((1-(4-(pyridin-4-ylsulfonyl)phenyl)azetidin-3-yl)methyl)piperidin-4-yl)methyl)cyclopentyl dimethylcarbamate] | 0.261
CS(=O)(=O)c1ccc(N2CC(CN3CCC(C(C#N)(c4ccccc4)C4CCC(=O)C4)CC3)C2)cc1 (centres unmarked) [compound 169, 2-(1-((1-(4-(methylsulfonyl)phenyl)azetidin-3-yl)methyl)piperidin-4-yl)-2-(3-oxocyclopentyl)-2-phenylacetonitrile] | 49.9
N#Cc1ccc(OCCCN2CCC(C(C#N)(c3ccccc3)C3CCCC3)CC2)cc1 (centres unmarked) [compound 20, 4-(3-(4-(cyano(cyclopentyl)(phenyl)methyl)piperidin-1-yl)propoxy)benzonitrile] | 1.3
